Measured values reported in US20250171457A1, “NITROGEN-CONTAINING HETEROCYCLIC COMPOUND HAVING NRF2 ACTIVATION EFFECT” (CHUGAI SEIYAKU KABUSHIKI KAISHA, priority 2022, published 2025).

Each compound was assayed on Nrf2 transcriptional activity (pARE-Luc reporter) in HepG2 cells (assay: In vitro Nrf2 transcriptional activity measurement by ARE-dependent reporter assay in HepG2 cell). Settings: Homo sapiens; HepG2 cells transfected with pARE-Luc, 4 hours at 37° C.; luciferase activity of Example 1-54 or Example 17-23 at 3.75 μM defined as 100%.
Type: cell-based, human
Procedure, shortened: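 HepG2 cells transfected with pGL4.37 (pARE-Luc), replated onto compound and incubated 4 h at 37° C; luciferase read by Bright-Glo luminescence. Response normalized to 100% set by a reference compound at 3.75 μM; EC50 from dose-response curve.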

Question: Which EC50 does the source give for Cn1ccc2cc(Cl)c(C(=O)N3COc4c(cccc4-c4cc(N5CCOCC5)c(C(=O)O)cc4F)C3)cc21 [Compound 13-12, 4-[3-(5-Chloro-1-methylindole-6-carbonyl)-2,4-dihydro-1,3-benzoxazin-8-yl]-5-fluoro-2-morpholin-4-ylbenzoic acid] here?
Answer: 17 nM

Question: With Cn1ccc2c(C(=O)N3COc4c(cccc4-c4cc(N5CCOCC5)c(C(=O)O)cc4F)C3)c(Cl)cnc21 [Compound 13-13, 4-[3-(5-Chloro-1-methylpyrrolo[2,3-b]pyridine-4-carbonyl)-2,4-dihydro-1,3-benzoxazin-8-yl]-5-fluoro-2-morpholin-4-ylbenzoic acid] as the compound, how does the EC50 read?
Answer: 7.1 nM

Question: With O=C(O)c1cc(F)c(-c2cccc3c2OCN(C(=O)c2c(Cl)ccc4cc(Cl)cnc24)C3)cc1N1CCOCC1 [Compound 13-14, 4-[3-(3,7-Dichloroquinoline-8-carbonyl)-2,4-dihydro-1,3-benzoxazin-8-yl]-5-fluoro-2-morpholin-4-ylbenzoic acid] as the compound, how does the EC50 read?
Answer: 13 nM

Question: How did the EC50 turn out when Cn1ncc2cc(Cl)c(C(=O)N3COc4c(cccc4-c4cc(N5CCOCC5)c(C(=O)O)cc4F)C3)cc21 [Compound 13-15, 4-[3-(5-Chloro-1-methylindazole-6-carbonyl)-2,4-dihydro-1,3-benzoxazin-8-yl]-5-fluoro-2-morpholin-4-ylbenzoic acid] was run?
Answer: 10 nM

Question: For COc1cc(Cl)c(C(=O)N2COc3c(cccc3-c3cc(N4CCOCC4)c(C(=O)O)cc3F)C2)cc1OC [Compound 13-17, 4-[3-(2-Chloro-4,5-dimethoxybenzoyl)-2,4-dihydro-1,3-benzoxazin-8-yl]-5-fluoro-2-morpholin-4-ylbenzoic acid], which EC50 is on record?
Answer: 5.9 nM

Question: For Cn1cc(-c2cc(Cl)c(C(=O)N3CSc4c(cccc4-c4cc(N5CCOCC5)c(C(=O)O)cc4F)C3)c(Cl)c2)cn1 [Compound 13-18, 4-[3-[2,6-Dichloro-4-(1-methylpyrazol-4-yl)benzoyl]-2,4-dihydro-1,3-benzothiazin-8-yl]-5-fluoro-2-morpholin-4-ylbenzoic acid], which EC50 is on record?
Answer: 21 nM

Question: Which EC50 does the source give for Cn1cc(-c2cc(Cl)c(C(=O)N3COc4c(cccc4-c4cc(N5CCOCC5)c(C(=O)O)cc4F)C3)c(Cl)c2)cn1 [Compound 13-19, 4-[3-[2,6-Dichloro-4-(1-methylpyrazol-4-yl)benzoyl]-2,4-dihydro-1,3-benzoxazin-8-yl]-5-fluoro-2-morpholin-4-ylbenzoic acid] here?
Answer: 1.6 nM

Question: With Cc1cc(-c2cccc3c2OCN(C(=O)c2c(Cl)cc(-c4cnn(C)c4)cc2Cl)C3)cc(N2CCOCC2)c1C(=O)O [Compound 13-20, 4-[3-[2,6-Dichloro-4-(1-methylpyrazol-4-yl)benzoyl]-2,4-dihydro-1,3-benzoxazin-8-yl]-2-methyl-6-morpholin-4-ylbenzoic acid] as the compound, how does the EC50 read?
Answer: 7.2 nM

Question: Cn1cc(-c2cc(Cl)c(C(=O)N3COc4c(cccc4-c4cc(N5CC6COCC6C5)c(C(=O)O)cc4F)C3)c(Cl)c2)cn1 (centres unmarked) [Compound 14-2, 2-(1,3,3a,4,6,6a-Hexahydrofuro[3,4-c]pyrrol-5-yl)-4-[3-[2,6-dichloro-4-(1-methylpyrazol-4-yl)benzoyl]-2,4-dihydro-1,3-benzoxazin-8-yl]-5-fluorobenzoic acid] was tested. Which EC50 did it give?
Answer: 6.5 nM

Question: For Cn1cc(-c2cc(Cl)c(C(=O)N3COc4c(cccc4-c4ccc(C(=O)O)c(N5CCC(F)(F)CC5)c4)C3)c(Cl)c2)cn1 [Compound 14-3, 4-[3-[2,6-Dichloro-4-(1-methylpyrazol-4-yl)benzoyl]-2,4-dihydro-1,3-benzoxazin-8-yl]-2-(4,4-difluoropiperidin-1-yl)benzoic acid], which EC50 is on record?
Answer: 12 nM

Question: Which EC50 does the source give for Cn1cc(-c2cc(Cl)c(C(=O)N3Cc4cccc(-c5ccc(C(=O)O)c(N6CCOCC6)c5)c4C(=O)N3)c(Cl)c2)cn1 [Compound 14-4, 4-[2-[2,6-Dichloro-4-(1-methylpyrazol-4-yl)benzoyl]-4-oxo-1,3-dihydrophthalazin-5-yl]-2-morpholin-4-ylbenzoic acid] here?
Answer: 3.8 nM

Question: Cn1cc(-c2cc(Cl)c(C(=O)N3CNc4c(cccc4-c4ccc(C(=O)O)c(N5CCOCC5)c4)C3)c(Cl)c2)cn1 [Compound 14-5, 4-[3-[2,6-Dichloro-4-(1-methylpyrazol-4-yl)benzoyl]-2,4-dihydro-1H-quinazolin-8-yl]-2-morpholin-4-ylbenzoic acid] was tested. Which EC50 did it give?
Answer: 3.1 nM

Question: For Cn1cc(-c2cc(Cl)c(C(=O)N3Cc4cccc(-c5ccc(C(=O)O)c(N6CCOCC6)c5)c4NC3=O)c(Cl)c2)cn1 [Compound 14-6, 4-[3-[2,6-Dichloro-4-(1-methylpyrazol-4-yl)benzoyl]-2-oxo-1,4-dihydroquinazolin-8-yl]-2-morpholin-4-ylbenzoic acid], which EC50 is on record?
Answer: 20 nM

Question: [2H]C1([2H])c2cccc(-c3ccc(C(=O)O)c(N4CCOCC4)c3)c2OCN1C(=O)c1c(Cl)cc(-c2cnn(C)c2)cc1Cl [Compound 14-7, 4-[4,4-Dideuterio-3-[2,6-dichloro-4-(1-methylpyrazol-4-yl)benzoyl]-2H-1,3-benzoxazin-8-yl]-2-morpholin-4-ylbenzoic acid] was tested. Which EC50 did it give?
Answer: 2.5 nM

Question: Cn1cc(-c2cc(Cl)c(C(=O)N3Cc4cccc(-c5ccc(C(=O)O)c(N6CCOCC6)c5)c4CO3)c(Cl)c2)cn1 [Compound 14-8, 4-[3-[2,6-Dichloro-4-(1-methylpyrazol-4-yl)benzoyl]-1,4-dihydro-2,3-benzoxazin-8-yl]-2-morpholin-4-ylbenzoic acid] was tested. Which EC50 did it give?
Answer: 70 nM

Question: For COCCN1CCN(c2cc(Cl)c(C(=O)N3COc4c(cccc4-c4cc(N5C6CCC5COC6)c(C(=O)O)cc4F)C3)c(Cl)c2)CC1 [Compound 14-9, 4-[3-[2,6-Dichloro-4-[4-(2-methoxyethyl)piperazin-1-yl]benzoyl]-2,4-dihydro-1,3-benzoxazin-8-yl]-5-fluoro-2-(3-oxa-8-azabicyclo[3.2.1]octan-8-yl)benzoic acid], which EC50 is on record?
Answer: 3.7 nM

Question: For CC(C)(O)Cn1cc(-c2cc(Cl)c(C(=O)N3COc4c(cccc4-c4ccc(C(=O)O)c(N5CCOCC5)c4)C3)c(Cl)c2)cn1 [Compound 15-1, 4-[3-[2,6-Dichloro-4-[1-(2-hydroxy-2-methylpropyl)pyrazol-4-yl]benzoyl]-2,4-dihydro-1,3-benzoxazin-8-yl]-2-morpholin-4-ylbenzoic acid], which EC50 is on record?
Answer: 4.9 nM

Question: Which EC50 does the source give for C[C@H](O)Cn1cc(-c2cc(Cl)c(C(=O)N3COc4c(cccc4-c4ccc(C(=O)O)c(N5CCOCC5)c4)C3)c(Cl)c2)cn1 [Compound 15-2, 4-[3-[2,6-Dichloro-4-[1-[(2S)-2-hydroxypropyl]pyrazol-4-yl]benzoyl]-2,4-dihydro-1,3-benzoxazin-8-yl]-2-morpholin-4-ylbenzoic acid] here?
Answer: 21 nM

Question: With COC[C@H](O)Cn1cc(-c2cc(Cl)c(C(=O)N3COc4c(cccc4-c4cc(N5CCOCC5)c(C(=O)O)cc4F)C3)c(Cl)c2)cn1 [Compound 15-3, 4-[3-[2,6-Dichloro-4-[1-[(2R)-2-hydroxy-3-methoxypropyl]pyrazol-4-yl]benzoyl]-2,4-dihydro-1,3-benzoxazin-8-yl]-5-fluoro-2-morpholin-4-ylbenzoic acid] as the compound, how does the EC50 read?
Answer: 1.5 nM

Question: Which EC50 does the source give for COC[C@H](O)Cn1cc(-c2cc(Cl)c(C(=O)N3COc4c(cccc4-c4ccc(C(=O)O)c(N5CCOCC5)c4)C3)c(Cl)c2)cn1 [Compound 15-4, 4-[3-[2,6-Dichloro-4-[1-[(2R)-2-hydroxy-3-methoxypropyl]pyrazol-4-yl]benzoyl]-2,4-dihydro-1,3-benzoxazin-8-yl]-2-morpholin-4-ylbenzoic acid] here?
Answer: 6.8 nM

Question: CC1(O)CC2(CN(c3cc(Cl)c(C(=O)N4COc5c(cccc5-c5cc(N6C7CCC6COC7)c(C(=O)O)cc5F)C4)c(Cl)c3)C2)C1 [Compound 16-1, 4-[3-[2,6-Dichloro-4-(6-hydroxy-6-methyl-2-azaspiro[3.3]heptan-2-yl)benzoyl]-2,4-dihydro-1,3-benzoxazin-8-yl]-5-fluoro-2-(3-oxa-8-azabicyclo[3.2.1]octan-8-yl)benzoic acid] was tested. Which EC50 did it give?
Answer: 13 nM

Question: With COC1(C)CC2(CN(c3cc(Cl)c(C(=O)N4COc5c(cccc5-c5cc(N6C7CCC6COC7)c(C(=O)O)cc5F)C4)c(Cl)c3)C2)C1 [Compound 16-2, 4-[3-[2,6-Dichloro-4-(6-methoxy-6-methyl-2-azaspiro[3.3]heptan-2-yl)benzoyl]-2,4-dihydro-1,3-benzoxazin-8-yl]-5-fluoro-2-(3-oxa-8-azabicyclo[3.2.1]octan-8-yl)benzoic acid] as the compound, how does the EC50 read?
Answer: 1.5 nM

Question: C[C@@H]1CN(C)CCN1c1cc(Cl)c(C(=O)N2COc3c(cccc3-c3cc(N4C5CCC4COC5)c(-c4n[nH]c(=O)o4)cc3F)C2)c(Cl)c1 [Compound 16-3, 5-[4-[3-[2,6-Dichloro-4-[(2R)-2,4-dimethylpiperazin-1-yl]benzoyl]-2,4-dihydro-1,3-benzoxazin-8-yl]-5-fluoro-2-(3-oxa-8-azabicyclo[3.2.1]octan-8-yl)phenyl]-3H-1,3,4-oxadiazol-2-one] was tested. Which EC50 did it give?
Answer: 17 nM

Question: Which EC50 does the source give for C[C@@H]1CN(C)CCN1c1cc(Cl)c(C(=O)N2COc3c(cccc3-c3cc(N4C5CCC4COC5)c(-c4nnn[nH]4)cc3F)C2)c(Cl)c1 [Compound 16-4, [2,6-Dichloro-4-[(2R)-2,4-dimethylpiperazin-1-yl]phenyl]-[8-[2-fluoro-5-(3-oxa-8-azabicyclo[3.2.1]octan-8-yl)-4-(1H-tetrazol-5-yl)phenyl]-2,4-dihydro-1,3-benzoxazin-3-yl]methanone] here?
Answer: 110 nM

Question: Cn1cc(-c2cc(Cl)c(C(=O)N3COc4c(cccc4-c4ccc(-c5nnn[nH]5)c(N5CCOCC5)c4)C3)c(Cl)c2)cn1 [Compound 16-5, [2,6-Dichloro-4-(1-methylpyrazol-4-yl)phenyl]-[8-[3-morpholin-4-yl-4-(1H-tetrazol-5-yl)phenyl]-2,4-dihydro-1,3-benzoxazin-3-yl]methanone] was tested. Which EC50 did it give?
Answer: 200 nM

Question: How did the EC50 turn out when COC1CN(c2cc(Cl)c(C(=O)N3COc4c(cccc4-c4cc(N5C6CCC5COC6)c(C(=O)NS(C)(=O)=O)cc4F)C3)c(Cl)c2)C1 [Compound 16-6, 4-[3-[2,6-Dichloro-4-(3-methoxyazetidin-1-yl)benzoyl]-2,4-dihydro-1,3-benzoxazin-8-yl]-5-fluoro-N-methylsulfonyl-2-(3-oxa-8-azabicyclo[3.2.1]octan-8-yl)benzamide] was run?
Answer: 170 nM
